Laboratory results: patent publication US20200146289A1, “Herbicidal pyrimidine compounds” (BASF SE, priority 2017, published 2020)

Tests used:
AGSST [1] = assay: greenhouse post-emergence herbicidal test; format: in vivo, Agrostis stolonifera; details: 2000 g/ha, scale 0 to 100
From the text: (§1) The seeds of the test plants were sown separately for each species. For the post-emergence treatment, the test plants were first grown to a height of 3 to 15 cm, depending on the plant habit, and only then treated with the active ingredients which had been suspended or emulsified in water. For this purpose, the test plants were either sown directly and grown in the same containers, or they were first grown separately as seedlings and transplanted into the test containers a few days prior to treatment. Depending on the species, the plants were kept at 10-25° C. or 20-35° C., respectively. The test period extended over 2 to 4 weeks. During this time, the plants were tended, and their response to the individual treatments was evaluated. Evaluation was carried out using a scale from 0 to 100. 100 means no emergence of the plants, or complete destruction of at least the aerial moieties, and 0 means no damage, or normal course of growth. A good herbicidal activity is given at values of at least 70 and a very good herbicidal activity is given at values of at least 85. The plants used in the greenhouse experiments were of the following species: [table]

POAAN [2] = assay: greenhouse pre-emergence herbicidal test; format: in vivo, Poa annua; details: 2000 g/ha, scale 0 to 100
From the text: (§2) The seeds of the test plants were sown separately for each species. For the pre-emergence treatment, the active ingredients, which had been suspended or emulsified in water, were applied directly after sowing by means of finely distributing nozzles. The containers were irrigated gently to promote germination and growth and subsequently covered with transparent plastic hoods until the plants had rooted. This cover caused uniform germination of the test plants, unless this had been impaired by the active ingredients. Depending on the species, the plants were kept at 10-25° C. or 20-35° C., respectively. The test period extended over 2 to 4 weeks. During this time, the plants were tended, and their response to the individual treatments was evaluated. Evaluation was carried out using a scale from 0 to 100. 100 means no emergence of the plants, or complete destruction of at least the aerial moieties, and 0 means no damage, or normal course of growth. A good herbicidal activity is given at values of at least 70 and a very good herbicidal activity is given at values of at least 85. The plants used in the greenhouse experiments were of the following species: [table]

AGSST [3] = assay: greenhouse pre-emergence herbicidal test; format: in vivo, Agrostis stolonifera; details: 2000 g/ha, scale 0 to 100
From the text: as §2

POAAN [4] = assay: greenhouse post-emergence herbicidal test; format: in vivo, Poa annua; details: 2000 g/ha, scale 0 to 100
From the text: as §1

APESV = assay: greenhouse pre-emergence herbicidal test; format: in vivo, Apera spica-venti; details: for control of APESV: 125 g/ha; for herbicidal activity: APESV, scale 0 to 100
From the text: as §2

AVEFA = assay: greenhouse post-emergence herbicidal test; format: in vivo, Avena fatua; details: for control of AVEFA: 500 g/ha; for herbicidal activity: AVEFA, scale 0 to 100
From the text: as §1

ECHCG [5] = assay: greenhouse post-emergence herbicidal test; format: in vivo, Echinocloa crus-galli; details: scale 0 to 100
From the text: as §1

ALOMY [6] = assay: greenhouse post-emergence herbicidal test; format: in vivo, Alopecurus myosuroides; details: for herbicidal activity: ALOMY, scale 0 to 100; for control of ALOMY: 500 g/ha
From the text: as §1

ECHCG [7] = assay: greenhouse pre-emergence herbicidal test; format: in vivo, Echinocloa crus-galli; details: scale 0 to 100
From the text: as §2

ALOMY [8] = assay: greenhouse pre-emergence herbicidal test; format: in vivo, Alopecurus myosuroides; details: 125 g/ha
From the text: as §2

SETVI = assay: greenhouse post-emergence herbicidal test; format: in vivo, Setaria viridis; details: 1000 g/ha, scale 0 to 100
From the text: as §1

AMARE = assay: greenhouse post-emergence herbicidal test; format: in vivo, Amaranthus retroflexus; details: for control of AMARE: 500 g/ha; for herbicidal activity: 1000 g/ha, AMARE, scale 0 to 100
From the text: as §1

MATIN = assay: greenhouse post-emergence herbicidal test; format: in vivo, Matricaria inodora; details: 2000 g/ha, scale 0 to 100
From the text: as §1

Structure (SMILES)	herbicidal activity (APESV; 1000 g/ha)	control of AVEFA (AVEFA) [%]	herbicidal activity (ECHCG [5]; 1000 g/ha)	herbicidal activity (ALOMY [6]; 1000 g/ha)	herbicidal activity (ECHCG [7]; 1000 g/ha)	herbicidal activity (APESV; 2000 g/ha)	herbicidal activity (ALOMY [6]; 2000 g/ha)	further results
COC(=O)c1nc(C2CC2)ncc1-c1cc(C(F)(F)F)ccc1Br [Ex.5]	–	–	–	–	–	–	–	herbicidal activity (AGSST [1]): very good (a very good herbicidal activity is given at values of at least 85); herbicidal activity (POAAN [2]): very good (a very good herbicidal activity is given at values of at least 85); herbicidal activity (AGSST [3]): good (A good herbicidal activity is given at values of at least 70); herbicidal activity (POAAN [4]): very good (a very good herbicidal activity is given at values of at least 85)
COC(=O)c1nc(C2CC2)ncc1-c1cc(C(F)(F)F)ccc1Cl [Ex.3, Methyl 5-[2-chloro-5-(trifluoromethyl)phenyl]-2-cyclopropyl-pyrimidine-4-carboxylate]	very good (a very good herbicidal activity is given at values of at least 85)	85	very good (a very good herbicidal activity is given at values of at least 85)	very good (a very good herbicidal activity is given at values of at least 85)	very good (a very good herbicidal activity is given at values of at least 85)	–	–	control of APESV (APESV): 90%; herbicidal activity (AVEFA; 1000 g/ha): very good (a very good herbicidal activity is given at values of at least 85); control of ALOMY (ALOMY [8]): 85%
COC(=O)c1nc(C2CC2)ncc1-c1cc(C(F)F)ccc1Cl [Ex.7]	very good (a very good herbicidal activity is given at values of at least 85)	90	very good (a very good herbicidal activity is given at values of at least 85)	very good (a very good herbicidal activity is given at values of at least 85)	very good (a very good herbicidal activity is given at values of at least 85)	–	–	herbicidal activity (AVEFA; 1000 g/ha): very good (a very good herbicidal activity is given at values of at least 85)
O=C(O)c1nc(C2CC2)ncc1-c1cc(OC(F)(F)F)ccc1F [Ex.12]	–	–	–	–	–	very good (a very good herbicidal activity is given at values of at least 85)	very good (a very good herbicidal activity is given at values of at least 85)	herbicidal activity (AVEFA; 2000 g/ha): good (A good herbicidal activity is given at values of at least 70)
COC(=O)c1nc(C2CC2)ncc1-c1cc(OC(F)(F)F)ccc1F [Ex.11]	–	–	–	–	–	very good (a very good herbicidal activity is given at values of at least 85)	very good (a very good herbicidal activity is given at values of at least 85)	herbicidal activity (AVEFA; 2000 g/ha): very good (a very good herbicidal activity is given at values of at least 85); herbicidal activity (ECHCG [7]; 2000 g/ha): very good (a very good herbicidal activity is given at values of at least 85)
Cc1ccc(C(F)(F)F)cc1-c1cnc(C2CC2)nc1C(=O)O [Ex.14]	–	–	–	–	–	very good (a very good herbicidal activity is given at values of at least 85)	very good (a very good herbicidal activity is given at values of at least 85)	herbicidal activity (AVEFA; 2000 g/ha): very good (a very good herbicidal activity is given at values of at least 85); herbicidal activity (ECHCG [5]; 2000 g/ha): very good (a very good herbicidal activity is given at values of at least 85); herbicidal activity (ECHCG [7]; 2000 g/ha): very good (a very good herbicidal activity is given at values of at least 85)
O=C(O)c1nc(C2CC2)ncc1-c1cc(C(F)F)ccc1Cl [Ex.8]	very good (a very good herbicidal activity is given at values of at least 85)	90	–	very good (a very good herbicidal activity is given at values of at least 85)	very good (a very good herbicidal activity is given at values of at least 85)	–	–	herbicidal activity (SETVI): very good (a very good herbicidal activity is given at values of at least 85); control of ALOMY (ALOMY [6]): 90%; control of AMARE (AMARE): 100%; herbicidal activity (AMARE): very good (a very good herbicidal activity is given at values of at least 85)
O=C(O)c1nc(C2CC2)ncc1-c1cc(C(F)(F)F)ccc1Cl [Ex.4, 5-[2-chloro-5-(trifluoromethyl)phenyl]-2-cyclopropyl-pyrimidine-4-carboxylic acid]	very good (a very good herbicidal activity is given at values of at least 85)	90	very good (a very good herbicidal activity is given at values of at least 85)	very good (a very good herbicidal activity is given at values of at least 85)	very good (a very good herbicidal activity is given at values of at least 85)	–	–	control of APESV (APESV): 100%; control of ALOMY (ALOMY [6]): 90%; control of AMARE (AMARE): 80%; herbicidal activity (AMARE): very good (a very good herbicidal activity is given at values of at least 85); control of ALOMY (ALOMY [8]): 90%
O=C(O)c1nc(C2CC2)ncc1-c1cc(C(F)(F)F)ccc1Br [Ex.6]	very good (a very good herbicidal activity is given at values of at least 85)	–	very good (a very good herbicidal activity is given at values of at least 85)	very good (a very good herbicidal activity is given at values of at least 85)	very good (a very good herbicidal activity is given at values of at least 85)	–	–	herbicidal activity (SETVI): very good (a very good herbicidal activity is given at values of at least 85)
O=C(O)c1nc(C2CC2)ncc1-c1cc(C(F)(F)F)cc(Br)c1Br [Ex.9]	–	–	–	–	–	good (A good herbicidal activity is given at values of at least 70)	–	herbicidal activity (POAAN [2]): very good (a very good herbicidal activity is given at values of at least 85); herbicidal activity (MATIN): very good (a very good herbicidal activity is given at values of at least 85); herbicidal activity (POAAN [4]): very good (a very good herbicidal activity is given at values of at least 85)
COC(=O)c1nc(C2CC2)ncc1-c1cc(C(F)(F)F)ccc1C [Ex.13]	–	–	–	–	–	very good (a very good herbicidal activity is given at values of at least 85)	very good (a very good herbicidal activity is given at values of at least 85)	herbicidal activity (ECHCG [7]; 2000 g/ha): very good (a very good herbicidal activity is given at values of at least 85)
